The text below walks through data of patent publication US20240183860A1, “Chimeric ABC Transporters and Screening Methods” (Genentech, Inc., priority 2021, published 2024).

What is called IC50 is the concentration that gives 50% inhibition. Low readings indicate higher potency, high ones lower potency.

Assay [1] concerns E. coli CFT073 lptD(imp4213) cells. Nature of the assay: Electron microscopy of inhibitor-exposed cells (membrane phenotype, LPS transport). It counts as cell-based, Escherichia coli. The source says:
In some embodiments, one or more functional assays may be performed to test the effect of molecules identified in a screen on the function of the parental ABC transporter. For example, in some cases, a molecule that binds to the periplasmic, extracellular, and/or luminal face of an ABC transporter acts as an inhibitor of the transporter. For example, if inhibition of an ABC transporter activity is expected to result in loss of cell viability or reduction of cell growth, for example, then a cell viability or growth assay can be conducted to determine if presence of the identified molecule affects these parameters. In some cases, other assays may be conducted to determine the impact of a molecule on the function of the transporter. In some cases, the transport of the transporter's substrate in the presence and absence of the molecule can be tested. […] Lack of LPS transport causes a stacking of inner and outer membranes at the surface of a bacterial cell that is clearly visible by EM. Appropriate functional assays for the ABC transporter in question are known or may be readily developed based on knowledge in the art.
Electron microscopy of E. coli CFT073 lptD(imp4213) or CFT073 lptD(imp4213) msbA-cond-ko cells rescued with pLMG18 plasmids expressing the indicated E. coli MsbA mutants was performed as described previously (Ho et al., 2018). […]

Assay [2] has as its target T1, EcMsbA-chim5 (MsbA-chimera5) (Escherichia coli, UniProt P60752, D53T/D54Y/D60K/DEL268-292/DEL57-57/F265A/G55I/I169L/INS266IAYAGNRVIHEDMRSGALIAFIAAL/INS66P/K49D/K58D/L171A/L263V/L51V/L52I/M159V/M67L/P68V/S164D/S62H/T59E/V63D/Y163E).
T1 construct: FLAG (N); made in house; host or cells: E. coli Rosetta 2 (DE3), pET-52b vector
Briefly: biochemical. The format is biochemical. The protocol:
(§1) The ATPase activity of MsbA was measured using a Transcreener ADP2 FP Assay (BellBrook Labs). […] The final condition for the reaction was MsbA enzyme, 50 μM ATP in 50 mM Tris pH 7.5, 10 mM MgCl2, 1% glycerol, 0.1% bovine gamma globulin, 1 mM dithiothreitol (DTT), 0.007% Brij-35 and 0.5% dimethylsulfoxide (DMSO). The following concentrations were used for each MsbA variant: 5 nM of EcMsbA, EnMsbA, KpMsbA and 80 nM PaMsbA reconstituted in amphipol, 15 nM EcMsbA and EcMsbA-chim5 in LMNG detergent, 22 nM EcMsbA and 27 nM EcMsbA-12G7 complex in aDDM detergent. The enzyme reaction was incubated for 1 hour at room temperature, then quenched by adding the Transcreener Detection Buffer. The IC50 was determined by fitting the inhibition dose-response curve with a nonlinear four-parameter inhibition model (GraphPad Prism).

For assay [3], the system named is EcMsbA-chim5 (MsbA-chimera5). Briefly: biochemical. The format is biochemical, Escherichia coli. The following applies: ratio of ATPase IC50s. The protocol: as §1
Assay [4] has as its target Enterobacter cloacae MsbA (EnMsbA). Briefly: MsbA ATPase assay, amphipol-reconstituted homologue. The settings on record: FIGS. 13A, 13C. The format is biochemical. On the procedure:
as §1

In assay [5] the target is T2, Pseudomonas aeruginosa MsbA (PaMsbA) (Pseudomonas aeruginosa, UniProt Q9HUG8).
T2 construct: FLAG; made in house; host or cells: not restated ('similarly expressed')
T2 sequence (Q9HUG8 1-603): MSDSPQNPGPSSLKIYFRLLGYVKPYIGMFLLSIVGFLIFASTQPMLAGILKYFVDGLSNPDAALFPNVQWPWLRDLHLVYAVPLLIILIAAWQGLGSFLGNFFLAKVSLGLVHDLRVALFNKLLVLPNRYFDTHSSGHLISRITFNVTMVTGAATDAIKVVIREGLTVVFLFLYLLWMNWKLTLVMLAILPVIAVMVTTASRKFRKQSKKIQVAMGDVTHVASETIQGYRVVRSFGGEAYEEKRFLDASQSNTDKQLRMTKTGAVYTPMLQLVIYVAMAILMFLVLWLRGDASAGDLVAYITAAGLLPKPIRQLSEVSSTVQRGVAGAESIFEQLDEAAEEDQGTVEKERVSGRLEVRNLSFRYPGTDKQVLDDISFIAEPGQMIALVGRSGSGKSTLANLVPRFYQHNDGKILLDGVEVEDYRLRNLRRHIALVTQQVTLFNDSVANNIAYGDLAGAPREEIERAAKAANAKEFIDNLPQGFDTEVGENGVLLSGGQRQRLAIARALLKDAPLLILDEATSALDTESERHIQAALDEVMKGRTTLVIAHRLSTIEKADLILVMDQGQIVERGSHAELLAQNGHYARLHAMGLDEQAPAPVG
The description is as above. The format is biochemical. On the procedure: as §1

The target of assay [6] is Klebsiella pneumoniae MsbA (KpMsbA). The assay is described as above. It counts as biochemical. The following applies: FIGS. 13A, 13C. The protocol: as §1
For assay [7], the system named is WT E. coli cells with an intact outer membrane (CFT073, UPEC WT). Nature of the assay: Cellular IC50 determination (BacTiter-Glo, 6 hours). It counts as cell-based, Escherichia coli. The protocol:
The cellular IC50's of various bacterial strains (Table 2) were determined.
200 nL aliquots of eight 2-fold dilutions of each compound were dispensed in duplicate into 384-well plates using an Echo Liquid Handler (Labcyte). Strains were grown in cation-adjusted Mueller Hinton Broth with 0.002% Tween overnight for 16 hours, washed with PBS, resuspended at OD600=1 in cation-adjusted Mueller Hinton Broth with 0.002% Tween and 10% glycerol, and frozen in […] aliquots. For each experiment, aliquots were thawed on ice and diluted 1:1000 into cation-adjusted Mueller Hinton Broth with 0.002% Tween. 10 μL cells/well were added to 384-well plates containing compound. Plates were incubated for 6 hours at 37° C., then 10 μL BacTiter-Glo reagent (Promega) was added to each well and luminescence was measured. IC50's were calculated using Genedata Screener software.

The target in assay [8] is T3, E. coli MsbA (EcMsbA) (Escherichia coli, UniProt P60752).
T3 construct: FLAG (N); made in house; host or cells: E. coli (strain for the WT protein not restated)
T3 sequence (P60752 whole entry): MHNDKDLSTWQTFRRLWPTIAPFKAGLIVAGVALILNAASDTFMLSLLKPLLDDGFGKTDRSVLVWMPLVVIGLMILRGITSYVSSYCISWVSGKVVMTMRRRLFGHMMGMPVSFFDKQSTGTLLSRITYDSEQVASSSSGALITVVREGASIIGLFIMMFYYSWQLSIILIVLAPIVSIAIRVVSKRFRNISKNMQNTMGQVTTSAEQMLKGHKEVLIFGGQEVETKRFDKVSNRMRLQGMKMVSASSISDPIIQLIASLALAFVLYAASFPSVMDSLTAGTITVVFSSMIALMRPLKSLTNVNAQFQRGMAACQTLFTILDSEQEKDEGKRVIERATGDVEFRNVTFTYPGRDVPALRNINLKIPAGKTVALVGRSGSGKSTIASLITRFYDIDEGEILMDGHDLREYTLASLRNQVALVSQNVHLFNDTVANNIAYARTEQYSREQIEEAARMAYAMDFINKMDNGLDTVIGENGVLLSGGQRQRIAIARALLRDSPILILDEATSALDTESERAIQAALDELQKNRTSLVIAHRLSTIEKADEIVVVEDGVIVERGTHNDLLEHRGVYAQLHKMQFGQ
Nature of the assay: MsbA ATPase assay (Transcreener ADP2 FP). It counts as biochemical. On the procedure: as §1

Assay [9] relates to imp E. coli (lptD(imp4213)), E. coli MsbA. Nature of the assay: Broth MIC assay. It counts as cell-based, Escherichia coli. The settings on record: cells containing the lptD(imp4213) allele. The protocol:
Broth MICs were determined in cation-adjusted Mueller-Hinton broth with 0.002% Tween-80, as previously described (Ho et al., 2018).

Converted amounts (≈) assume the structure as drawn. “Also recorded” adds a separate entry of the source. Bridge positions count the residues as written; N and C are the ends. Square brackets hold non-standard residues; d marks the D form. Peptide text beside a SMILES is read from it. NMeF = CN[C@@H](Cc1ccccc1)C(=O)O

T1 sequence (P60752 with tags, fused parts or gaps with the stated changes): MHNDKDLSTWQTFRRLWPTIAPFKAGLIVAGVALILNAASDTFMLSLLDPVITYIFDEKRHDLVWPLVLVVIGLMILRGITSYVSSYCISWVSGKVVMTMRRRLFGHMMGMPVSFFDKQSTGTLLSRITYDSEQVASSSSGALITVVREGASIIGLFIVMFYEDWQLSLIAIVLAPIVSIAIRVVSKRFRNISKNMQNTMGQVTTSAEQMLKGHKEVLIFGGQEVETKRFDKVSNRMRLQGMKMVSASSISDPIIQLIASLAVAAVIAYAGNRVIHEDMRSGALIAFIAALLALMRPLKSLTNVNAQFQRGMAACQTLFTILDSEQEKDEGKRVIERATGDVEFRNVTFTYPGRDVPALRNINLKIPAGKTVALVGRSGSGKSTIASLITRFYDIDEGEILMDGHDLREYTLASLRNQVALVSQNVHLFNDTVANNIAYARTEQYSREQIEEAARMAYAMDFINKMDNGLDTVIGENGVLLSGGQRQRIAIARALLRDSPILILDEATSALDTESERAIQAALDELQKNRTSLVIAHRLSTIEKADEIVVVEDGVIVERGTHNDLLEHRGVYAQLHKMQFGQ

Take `CC(C)C[C@@H]1NC(=O)[C@H](Cc2c[nH]c3ccccc23)NC(=O)[C@H](Cc2c[nH]c3ccccc23)NC(=O)[C@H](Cc2ccccc2)NC(=O)CSC[C@@H](C(=O)NCC(N)=O)NC(=O)[C@H](C(C)C)NC(=O)[C@H](Cc2ccccc2)N(C)C(=O)[C@H](Cc2c[nH]c3ccccc23)NC(=O)[C@H](Cc2c[nH]c3ccccc23)NC(=O)[C@H](CO)NC(=O)[C@H](C(C)C)NC(=O)[C@H](CC(=O)O)NC(=O)[C@H](CC(=O)O)NC(=O)[C@H](Cc2c[nH]c3ccccc23)NC1=O` [Compound G1118] ({CH2CO}-FWWLWDDVSWW[NMeF]VCG-NH2; thioether N-14): the “LPS transport activity of E. coli MsbA” value in assay [1] was “inhibit LPS transport activity”. In addition, the “inner membrane elaboration / membrane stacking phenotype” value in [1] (electron micrographs, imp cells treated with inhibitor) is “gave rise to the distinctive inner membrane elaboration phenotype; also recorded: mirrored the distinctive inner membrane elaboration phenotype”. In addition, the IC50 was greater than 5 µM in [2]; roughly 240 nM in assay [4]; 3.1 µM in [5]; roughly 120 nM in assay [6]; 5 nM in [8] (IC50 for binding to MsbA in an imp E. coli strain, worded as binding to MsbA in imp E. coli strain (outer membrane permeable), FIG. 3F); roughly 110 nM in assay [8] (half-maximum inhibitory concentration (IC50), ATPase activity of EcMsbA, purified WT EcMsbA, FIG. 3C). Moreover, the “lower potency on purified MsbA-chim5 versus EcMsbA” value in assay [3] is given as greater than 30 fold. Moreover, in [7], the “activity on WT E. coli with an intact outer membrane” value is given as “no activity was observed”. The “minimum inhibitory concentration (MIC)” value in [9] was roughly 210 µg/mL (≈ 101 µM).
